Laboratory results taken from patent US20160101148A1, “TREATMENT AND PREVENTION OF BACTERIAL SKIN INFECTIONS USING ORITAVANCIN” (priority 2013, published 2016).
Values after ≈ are worked out from the molar mass of the structure shown. Marks after values point to notes of the source that are not given here.

Key:
[1] = tested on: S. aureus strains (14 mecC MRSA, 2 mecA MRSA, ATCC 29213 MSSA); experiment: Broth microdilution MIC determination; assay type: cell-based, Staphylococcus aureus
Experimental: The S. aureus (SA) strains used in this study were: ATCC 43300 (mecA methicillin-resistant SA [MRSA]); ATCC 33591 (mecA MRSA), ATCC 29213 (methicillin-susceptible SA; quality control strain) and 14 mecC MRSA obtained from the Staten Serum Institute (Copenhagen, Denmark).
Tests with oritavancin included polysorbate-80 (final test concentration of 0.002%) as described (CLSI 2012a; Arhin et al., 2008). Tests with daptomycin included CaCl2 at a concentration of 50 mg/L. MICs were read after 24 h incubation.

[2] = tested on: ABSSSI caused by susceptible gram-positive bacteria, including MRSA; experiment: SOLO I and SOLO II combined, efficacy; assay type: in vivo, human; conditions: for FDA primary endpoint: Cessation of spread, absence of fever, no rescue antibiotics / ≧20% reduction of lesion area / FDA primary endpoint: Cessation of spread, absence of fever, no rescue antibiotics, number of patients / ≧20% reduction of lesion area, number of patients / % Difference (95% CI), FDA primary endpoint / % Difference (95% CI), ≧20% reduction of lesion area / EMA primary endpoint: Investigator-assessed clinical cure / EMA primary endpoint: Investigator-assessed clinical cure, number of patients / % Difference (95% CI), investigator-assessed clinical cure: SOLO I and SOLO II combined; for FDA primary endpoint: Cessation of spread, absence of fever, no rescue antibiotics / ≧20% reduction of lesion area / FDA primary endpoint: Cessation of spread, absence of fever, no rescue antibiotics, number of patients / ≧20% reduction of lesion area, number of patients / % Difference (95% CI), FDA primary endpoint / % Difference (95% CI), ≧20% reduction of lesion area: ECE; for % Difference (95% CI), FDA primary endpoint / % Difference (95% CI), ≧20% reduction of lesion area / % Difference (95% CI), investigator-assessed clinical cure: oritavancin vs vancomycin; for EMA primary endpoint: Investigator-assessed clinical cure / EMA primary endpoint: Investigator-assessed clinical cure, number of patients / % Difference (95% CI), investigator-assessed clinical cure: PTE
Excerpt: Complete results were obtained from a phase 3 clinical trial program of oritavancin (SOLO), which investigated the drug for the treatment of acute bacterial skin and skin structure infections (ABSSSI) caused by susceptible gram-positive bacteria, including methicillin-resistant Staphylococcus aureus (MRSA). SOLO I and SOLO II clinical trials were identical multicenter, double-blind, randomized clinical trials.
In microbiologically confirmed MRSA patients, efficacy was similar in both treatment groups; however, a higher proportion of MRSA-infected patients in the oritavancin group achieved the endpoint of greater than or equal to 20% reduction of lesion area at ECE (p value=0.032). Under the Special Protocol Assessment (SPA) agreed with the FDA, the protocols pre-specified that MRSA patients from the SOLO studies would be pooled for the evaluation of efficacy.
The combined SOLO studies represented 1,987 patients in an intent-to-treat population for evaluation of oritavancin in the treatment of ABSSSI in controlled clinical trials and assessed one of the largest subsets of patients with documented MRSA infection (405 patients).

[3] = tested on: S. aureus strains (14 mecC MRSA, 2 mecA MRSA, ATCC 29213 MSSA); experiment: In vitro time-kill assays at free peak and free trough concentrations; assay type: cell-based, Staphylococcus aureus
Experimental: Viable cell count was determined by serial dilution plating, including the use of 25 g/L charcoal suspension to limit antibiotic carryover. […] Time-kill assays were repeated at least twice independently; results presented are from a representative experiment.
Doubling dilution concentrations of comparator agents were likewise chosen to approximate their fCmax and fCmin levels in plasma when administered at approved dosages for complicated skin and skin structure infections, using pharmacokinetic data and protein binding values from their respective package inserts (DAP [Cubicin®]; LZD [Zyvox®]; VAN [Vancocin®]; Table 3).

MRSA isolates = MRSA isolates in a surveillance study (Arhin et al., 2009); cited from earlier work
[4] = confirmed MRSA, MicroITT, oritavancin n = 204, vancomycin n = 201
[5] = mITT, oritavancin n = 978, vancomycin n = 981

CN[C@H](CC(C)C)C(=O)N[C@H]1C(=O)N[C@@H](CC(N)=O)C(=O)N[C@H]2C(=O)N[C@H]3C(=O)N[C@H](C(=O)N[C@H](C(=O)O)c4cc(O)cc(O)c4-c4cc3ccc4O)[C@H](O[C@H]3C[C@](C)(N)[C@@H](O)[C@H](C)O3)c3ccc(c(Cl)c3)Oc3cc2cc(c3O[C@@H]2O[C@H](CO)[C@@H](O)[C@H](O)[C@H]2O[C@H]2C[C@](C)(NCc3ccc(-c4ccc(Cl)cc4)cc3)[C@@H](O)[C@H](C)O2)Oc2ccc(cc2Cl)[C@H]1O [Oritavancin, N^DISACC-(4-(4-chlorophenyl)benzyl)A82846B]
MIC90 ([1]; Staphylococcus aureus): 0.06 µg/mL (≈ 0.0335 µM) | MIC ([1]; Staphylococcus aureus, 57147 MRSA (mecC)): 0.03 µg/mL (≈ 0.0167 µM) | MIC ([1]; Staphylococcus aureus, 70611 MRSA (mecC)): 0.06 µg/mL (≈ 0.0335 µM) | MIC ([1]; Staphylococcus aureus, 73348 MRSA (mecC)): 0.06 µg/mL (≈ 0.0335 µM) | MIC ([1]; Staphylococcus aureus, 73415 MRSA (mecC)): 0.06 µg/mL (≈ 0.0335 µM) | MIC ([1]; Staphylococcus aureus, 73617 MRSA (mecC)): 0.03 µg/mL (≈ 0.0167 µM) | MIC ([1]; Staphylococcus aureus, 73829 MRSA (mecC)): 0.03 µg/mL (≈ 0.0167 µM) | MIC ([1]; Staphylococcus aureus, 75814 MRSA (mecC)): 0.06 µg/mL (≈ 0.0335 µM) | MIC ([1]; Staphylococcus aureus, 76918 MRSA (mecC)): 0.03 µg/mL (≈ 0.0167 µM) | MIC ([1]; Staphylococcus aureus, 77431 MRSA (mecC)): 0.03 µg/mL (≈ 0.0167 µM) | MIC ([1]; Staphylococcus aureus, 77601 MRSA (mecC)): 0.03 µg/mL (≈ 0.0167 µM) | MIC ([1]; Staphylococcus aureus, 77950 MRSA (mecC)): 0.03 µg/mL (≈ 0.0167 µM) | MIC ([1]; Staphylococcus aureus, 77964 MRSA (mecC)): 0.06 µg/mL (≈ 0.0335 µM) | MIC ([1]; Staphylococcus aureus, 78085 MRSA (mecC)): 0.06 µg/mL (≈ 0.0335 µM) | MIC ([1]; Staphylococcus aureus, 78651 MRSA (mecC)): 0.06 µg/mL (≈ 0.0335 µM) | MIC ([1]; Staphylococcus aureus, ATCC 29213 (MSSA)): 0.06 µg/mL (≈ 0.0335 µM) | MIC ([1]; Staphylococcus aureus, ATCC 29213 / ATCC 33591 / MRSA / MSSA, ATCC 33591 MRSA (mecA)): 0.06 µg/mL (≈ 0.0335 µM) | MIC ([1]; Staphylococcus aureus, ATCC 29213 / ATCC 43300 / MRSA / MSSA, ATCC 43300 MRSA (mecA)): 0.06 µg/mL (≈ 0.0335 µM) | MIC ([1]; Staphylococcus aureus, QC and mecA strains): 0.06 µg/mL (≈ 0.0335 µM) | MIC range ([1]; mecC strains): 0.03 to 0.06 µg/mL | FDA primary endpoint: Cessation of spread, absence of fever, no rescue antibiotics ([2]; confirmed MRSA, MicroITT): 81.4% | ≧20% reduction of lesion area ([2]; confirmed MRSA, MicroITT): 93.1% | FDA primary endpoint: Cessation of spread, absence of fever, no rescue antibiotics, number of patients [2, 4]: 166 | ≧20% reduction of lesion area, number of patients [2, 4]: 190 | % Difference (95% CI), FDA primary endpoint ([2]; confirmed MRSA, MicroITT): 0.8 (−6.9, 8.4) % | % Difference (95% CI), ≧20% reduction of lesion area ([2]; confirmed MRSA, MicroITT, p value = 0.032): 6.1 (0.5, 11.6)* % | EMA primary endpoint: Investigator-assessed clinical cure ([2]; confirmed MRSA, MicroITT): 83.3% | EMA primary endpoint: Investigator-assessed clinical cure, number of patients [2, 4]: 170 | % Difference (95% CI), investigator-assessed clinical cure ([2]; confirmed MRSA, MicroITT): −0.7 (−7.9, 6.4) % | FDA primary endpoint: Cessation of spread, absence of fever, no rescue antibiotics ([2]; mITT): 81.2% | ≧20% reduction of lesion area ([2]; mITT): 86.4% | FDA primary endpoint: Cessation of spread, absence of fever, no rescue antibiotics, number of patients [2, 5]: 794 | ≧20% reduction of lesion area, number of patients [2, 5]: 845 | % Difference (95% CI), FDA primary endpoint ([2]; mITT): 0.2 (−3.3, 3.7) % | % Difference (95% CI), ≧20% reduction of lesion area ([2]; mITT): 2.3 (−0.9, 5.4) % | EMA primary endpoint: Investigator-assessed clinical cure ([2]; mITT): 81.2% | EMA primary endpoint: Investigator-assessed clinical cure, number of patients [2, 5]: 794 | % Difference (95% CI), investigator-assessed clinical cure ([2]; mITT): 1.0 (−2.5, 4.5) % | Efficacy versus vancomycin for ECE and PTE endpoints ([2]; combined SOLO trials): non-inferior to vancomycin | Time to cidality (≧3 log decrease) ([3]; 57147 (mecC), oritavancin ƒCmax 16 mg/L): 5-10 min | Time to cidality (≧3 log decrease) ([3]; 57147 (mecC), oritavancin ƒCmin 2 mg/L): 5-10 min | Time to cidality (≧3 log decrease) ([3]; 70611 (mecC), oritavancin ƒCmax 16 mg/L): ≦5 min | Time to cidality (≧3 log decrease) ([3]; 70611 (mecC), oritavancin ƒCmin 2 mg/L): 5-10 min | Time to cidality (≧3 log decrease) ([3]; 73348 (mecC), oritavancin ƒCmax 16 mg/L): 5-10 min | Time to cidality (≧3 log decrease) ([3]; 73348 (mecC), oritavancin ƒCmin 2 mg/L): 5-10 min | Time to cidality (≧3 log decrease) ([3]; 73415 (mecC), oritavancin ƒCmax 16 mg/L): 5-10 min | Time to cidality (≧3 log decrease) ([3]; 73415 (mecC), oritavancin ƒCmin 2 mg/L): 5-10 min | Time to cidality (≧3 log decrease) ([3]; 73617 (mecC), oritavancin ƒCmax 16 mg/L): 5-10 min | Time to cidality (≧3 log decrease) ([3]; 73617 (mecC), oritavancin ƒCmin 2 mg/L): 10-15 min | Time to cidality (≧3 log decrease) ([3]; 73829 (mecC), oritavancin ƒCmax 16 mg/L): ≦5 min | Time to cidality (≧3 log decrease) ([3]; 73829 (mecC), oritavancin ƒCmin 2 mg/L): 5-10 min | Time to cidality (≧3 log decrease) ([3]; 75814 (mecC), oritavancin ƒCmax 16 mg/L): ≦5 min | Time to cidality (≧3 log decrease) ([3]; 75814 (mecC), oritavancin ƒCmin 2 mg/L): 5-10 min | Time to cidality (≧3 log decrease) ([3]; 76918 (mecC), oritavancin ƒCmax 16 mg/L): 5-10 min | Time to cidality (≧3 log decrease) ([3]; 76918 (mecC), oritavancin ƒCmin 2 mg/L): 5-10 min | Time to cidality (≧3 log decrease) ([3]; 77431 (mecC), oritavancin ƒCmax 16 mg/L): ≦5 min | Time to cidality (≧3 log decrease) ([3]; 77431 (mecC), oritavancin ƒCmin 2 mg/L): 5-10 min | Time to cidality (≧3 log decrease) ([3]; 77601 (mecC), oritavancin ƒCmax 16 mg/L): ≦5 min | Time to cidality (≧3 log decrease) ([3]; 77601 (mecC), oritavancin ƒCmin 2 mg/L): 5-10 min | Time to cidality (≧3 log decrease) ([3]; 77950 (mecC), oritavancin ƒCmax 16 mg/L): ≦5 min | Time to cidality (≧3 log decrease) ([3]; 77950 (mecC), oritavancin ƒCmin 2 mg/L): 5-10 min | Time to cidality (≧3 log decrease) ([3]; 77964 (mecC), oritavancin ƒCmax 16 mg/L): ≦5 min | Time to cidality (≧3 log decrease) ([3]; 77964 (mecC), oritavancin ƒCmin 2 mg/L): 5-10 min | Time to cidality (≧3 log decrease) ([3]; 78085 (mecC), oritavancin ƒCmax 16 mg/L): 5-10 min | Time to cidality (≧3 log decrease) ([3]; 78085 (mecC), oritavancin ƒCmin 2 mg/L): 10-15 min | Time to cidality (≧3 log decrease) ([3]; 78651 (mecC), oritavancin ƒCmax 16 mg/L): 5-10 min | Time to cidality (≧3 log decrease) ([3]; 78651 (mecC), oritavancin ƒCmin 2 mg/L): 10-15 min | Time to cidality (≧3 log decrease) ([3]; ATCC 29213 (MSSA), oritavancin ƒCmax 16 mg/L): 5-10 min | Time to cidality (≧3 log decrease) ([3]; ATCC 29213 (MSSA), oritavancin ƒCmin 2 mg/L): 10-15 min | Time to cidality (≧3 log decrease) ([3]; ATCC 33591 (mecA), oritavancin ƒCmax 16 mg/L): 5-10 min | Time to cidality (≧3 log decrease) ([3]; ATCC 33591 (mecA), oritavancin ƒCmin 2 mg/L): 10-15 min | Time to cidality (≧3 log decrease) ([3]; ATCC 43300 (mecA), oritavancin ƒCmax 16 mg/L): 5-10 min | Time to cidality (≧3 log decrease) ([3]; ATCC 43300 (mecA), oritavancin ƒCmin 2 mg/L): 5-10 min | MIC90 (MRSA isolates): 0.12 µg/mL (≈ 0.0669 µM)
